# Measurements: US20250144067A1, “PERSONALIZED STARVATION THERAPY FOR CANCER” (Faeth Therapeutics, Inc., priority 2021, published 2025)
# Where a name gives a salt, the structure may show the parent alone. Read-outs that look alike come from different tables or passages of the source.
# Experiments:
# [1] = test system: NCI-H292 lung cancer cells; experiment: FDA drug screening, complete media vs cholesterol-free media without statin (TABLE 1); assay type: cell-based, human
# [2] = test system: NCI-H292 lung cancer cells; experiment: FDA drug screening, complete media vs cholesterol-free media with simvastatin (TABLE 2); assay type: cell-based, human
# [3] = Complete minus Cholesterol-free, >0 enhanced anti-cancer activity, about 0 neutral, <0 antagonist
# [4] = NCI-H292 cells, cholesterol-free media without statin
# [5] = NCI-H292 cells, drug in cholesterol-free media with simvastatin 0.04 μM
# [6] = NCI-H292 cells, drug in complete media
# [7] = complete media vs cholesterol-free media + simvastatin (0.04 μM), >0 enhanced anti-cancer activity, about 0 neutral, <0 antagonist
# [8] = Complete minus Cholesterol-free, greater than 0 enhanced anti-cancer activity, about 0 neutral, below 0 antagonists
# [9] = NCI-H292 cells in cholesterol-free media without statin
# [10] = NCI-H292 cells in complete media
# [11] = NCI-H292 cells, FDA drug library screen, cholesterol-free media with simvastatin 0.04 μM
# [12] = NCI-H292 cells, FDA drug library screen, complete media
# [13] = Complete minus Cholesterol-free, greater than 0 enhanced anti-cancer activity, about 0 neutral, below 0 antagonist
# [14] = NCI-H292 cells, FDA drug library screen, cholesterol-free media without statin
# [15] = NCI-H292 cells, cholesterol-free media with simvastatin 0.04 μM, FDA drug library screen (TABLE 2)
# [16] = NCI-H292 cells, complete media, FDA drug library screen (TABLE 2)
# [17] = complete media minus cholesterol-free media + simvastatin (0.04 μM), >0 enhanced anti-cancer activity, about 0 neutral, <0 antagonist
# [18] = Complete minus Cholesterol-free, […]
# [19] = complete vs cholesterol-free media, greater than 0 enhanced anti-cancer activity, about 0 neutral, below 0 antagonists
# [20] = complete media minus cholesterol-free media + simvastatin, >0 enhanced anti-cancer activity, about 0 neutral, <0 antagonist
# [21] = NCI-H292 cells, cholesterol-free media without statin, FDA drug library screen
# [22] = NCI-H292 cells, complete media, FDA drug library screen
# [23] = complete vs cholesterol-free media, >0 enhanced anti-cancer activity, about 0 neutral, <0 antagonist
# [24] = NCI-H292 cells, cholesterol-free media with simvastatin 0.04 μM, cell growth value in FDA drug screen
# [25] = NCI-H292 cells, complete media, cell growth value in FDA drug screen
compound,measurement,setting,value
CN1CCCC(CC2c3ccccc3Sc3ccccc32)C1 (stereo not shown) [Metixene hydrochloride hydrate],Difference,[1]; [3],−0.25
same,Cholesterol-free,[1]; [4],1.293
same,Complete,"[1]; NCI-H292 cells, complete media",1.044
same,Cholesterol-free media + simvastatin (0.04 μM),[2]; [5],1.206
same,Complete Media,[2]; [6],1.036
same,Difference,[2]; [7],−0.17
CO/N=C(\C(=O)N[C@@H]1C(=O)N2C(C(=O)O)=C(COC(C)=O)CS[C@H]12)c1csc(N)n1 [Cefotaxime],Difference,[1]; [8],−0.57
same,Cholesterol-free,[1]; [9],1.225
same,Complete,[1]; [10],0.66
same,Cholesterol-free media + simvastatin (0.04 μM),[2]; [11],0.9945
same,Complete Media,[2]; [12],0.8998
same,Difference,[2]; [7],−0.09
CC(=O)O[C@]1(C(C)=O)CC[C@H]2[C@@H]3C=C(C)C4=CC(=O)CC[C@@H]4[C@H]3CC[C@@]21C [Nomegestrol acetate],Difference,[1]; [13],−0.14
same,Cholesterol-free,[1]; [14],0.9161
same,Complete,[1]; [12],0.7734
same,Cholesterol-free media + simvastatin (0.04 μM),[2]; [15],0.9875
same,Complete Media,[2]; [16],0.9519
same,Difference,[2]; [17],−0.04
Sodium tauroglycocholate,Difference,[1]; [18],−0.95
same,Cholesterol-free,[1]; [9],1.712
same,Complete,[1]; [10],0.7634
same,Cholesterol-free media + simvastatin (0.04 μM),"[2]; NCI-H292 cells, FDA library drug in cholesterol-free media with simvastatin 0.04 μM",1.256
same,Complete Media,"[2]; NCI-H292 cells, FDA library drug in complete media",0.9729
same,Difference,"[2]; complete media vs cholesterol-free media + simvastatin (0.04 μM), […]",−0.28
CC(C)[C@H](N)C(=O)OCCOCn1cnc2c(=O)[nH]c(N)nc21 [Valacyclovir (hydrochloride)],Cholesterol-free,[1]; [4],1.143
same,Complete,"[1]; NCI-H292 cells, complete media",0.7981
same,Difference,[1]; [19],−0.34
same,Cholesterol-free media + simvastatin (0.04 μM),[2]; [11],0.9432
same,Complete Media,[2]; [12],1.26
same,Difference,[2]; [20],0.32
O=C(O)c1cc2ccccc2c(Cc2c(O)c(C(=O)O)cc3ccccc23)c1O.OCCOCCN1CCN(C(c2ccccc2)c2ccc(Cl)cc2)CC1 [Hydroxyzine (pamoate)],Cholesterol-free,[1]; [21],0.6403
same,Complete,[1]; [22],0.9622
same,Difference,[1]; [23],0.32
same,Cholesterol-free media + simvastatin (0.04 μM),[2]; [11],1.16
same,Complete Media,[2]; [12],1.053
same,Difference,[2]; [7],−0.11
Nc1ccn([C@@H]2O[C@H](CO)[C@@H](O)[C@@H]2O)c(=O)n1 [Cytarabine],Difference,[1]; [3],−0.05
same,Cholesterol-free,[1]; [21],0.08949
same,Complete,[1]; [22],0.04199
same,Cholesterol-free media + simvastatin (0.04 μM),[2]; [11],0.2698
same,Complete Media,[2]; [12],0.1951
same,Difference,[2]; [7],−0.07
CCCCCCCCCCCCCCCCCC(=O)O [Stearic acid],Difference,[1]; [13],−0.14
same,Cholesterol-free,[1]; [14],1.159
same,Complete,[1]; [12],1.022
same,Cholesterol-free media + simvastatin (0.04 μM),[2]; [11],1.741
same,Difference,[2]; [17],−1.08
CC(C)(C)NC(=O)[C@H]1CC[C@H]2[C@@H]3CC=C4C=C(C(=O)O)CC[C@]4(C)[C@H]3CC[C@]12C [Epristeride],Cholesterol-free,[1]; [21],0.5663
same,Complete,[1]; [22],1.029
same,Difference,[1]; [23],0.46
same,Cholesterol-free media + simvastatin (0.04 μM),[2]; [11],0.7018
same,Complete Media,[2]; [12],0.8964
same,Difference,[2]; [20],0.19
CC1CCCC(C)N1CCCC(O)(c1ccccc1)c1ccccn1 (stereo not shown) [Pirmenol (hydrochloride)],Difference,[1]; [13],−0.15
same,Cholesterol-free,[1]; [14],0.8727
same,Complete,[1]; [12],0.7238
same,Cholesterol-free media + simvastatin (0.04 μM),[2]; [11],1.664
same,Complete Media,[2]; [12],1.547
same,Difference,[2]; [7],−0.12
CC(C)N(CCC(C(N)=O)(c1ccccc1)c1ccccn1)C(C)C (stereo not shown) [Disopyramide],Difference,[1]; [13],−0.15
same,Cholesterol-free,[1]; [14],1.106
same,Complete,[1]; [12],0.9575
same,Cholesterol-free media + simvastatin (0.04 μM),[2]; [15],1.301
same,Complete Media,[2]; [16],1.257
same,Difference,[2]; [17],−0.04
CC1=C(C(=O)OC(C)C)C(c2cccc([N+](=O)[O-])c2)C(C(=O)OC2CN(C(c3ccccc3)c3ccccc3)C2)=C(N)N1 (stereo not shown) [Azelnidipine],Difference,[1]; [13],−0.15
same,Cholesterol-free,[1]; [14],0.7076
same,Complete,[1]; [12],0.5567
same,Cholesterol-free media + simvastatin (0.04 μM),[2]; [11],0.7982
same,Complete Media,[2]; [12],1.013
same,Difference,[2]; [20],0.21
O=C(O)CN(CCN(CC(=O)O)CC(=O)O)CC(=O)O,Difference,[1]; [3],−0.27
same,Cholesterol-free,[1]; [4],1.665
same,Complete,"[1]; NCI-H292 cells, complete media",1.397
same,Cholesterol-free media + simvastatin (0.04 μM),[2]; [24],0.8557
same,Complete Media,[2]; [25],0.9311
same,Difference,[2]; [20],0.08
c1ccc(Cc2nc3ccccc3[nH]2)cc1 [Bendazol],Cholesterol-free,[1]; [21],1.234
same,Complete,[1]; [22],1.354
same,Difference,[1]; [23],0.12
same,Cholesterol-free media + simvastatin (0.04 μM),[2]; [11],1.208
same,Complete Media,[2]; [12],1.472
same,Difference,[2]; [20],0.26
CCCCC[C@H](O)CC[C@@H]1[C@H]2Cc3cccc(OCC(=O)O)c3C[C@H]2C[C@H]1O [Treprostinil (sodium)],Difference,[1]; [3],−0.02
same,Cholesterol-free,[1]; [21],1.017
same,Complete,[1]; [22],0.9998
same,Cholesterol-free media + simvastatin (0.04 μM),[2]; [5],1.119
same,Complete Media,[2]; [6],0.898
same,Difference,[2]; [7],−0.22
Toceranib (phosphate),Cholesterol-free,[1]; [4],1.278
same,Complete,"[1]; NCI-H292 cells, complete media",0.9469
same,Difference,[1]; [19],−0.33
same,Cholesterol-free media + simvastatin (0.04 μM),[2]; [11],0.9001
same,Difference,[2]; [20],0.14
CCOC(=O)[C@@H](N)Cc1ccc(-c2cc(O[C@H](c3ccc(Cl)cc3-n3ccc(C)n3)C(F)(F)F)nc(N)n2)cc1 [Telotristat etiprate],Difference,[1]; [8],−0.51
same,Cholesterol-free,[1]; [9],1.323
same,Complete,[1]; [10],0.8145
same,Cholesterol-free media + simvastatin (0.04 μM),[2]; [11],1.173
same,Complete Media,[2]; [12],1.074
same,Difference,[2]; [7],−0.10
COc1ccc2c(c1)c(CC(=O)O)c(C)n2C(=O)c1ccc(Cl)cc1 [Indomethacin],Difference,[1]; [8],−0.82
same,Cholesterol-free,[1]; [9],1.574
same,Complete,[1]; [10],0.7546
same,Cholesterol-free media + simvastatin (0.04 μM),[2]; [11],1.269
same,Complete Media,[2]; [12],1.474
same,Difference,[2]; [20],0.20
CCN1CCC[C@H]1CNC(=O)c1cc(S(N)(=O)=O)ccc1OC [Levosulpiride],Difference,[1]; [8],−0.54
same,Cholesterol-free,[1]; [9],1.287
same,Complete,[1]; [10],0.7498
same,Cholesterol-free media + simvastatin (0.04 μM),[2]; [11],0.9156
same,Complete Media,[2]; [12],1.092
same,Difference,[2]; [20],0.18
NC1=NCC2c3ccccc3Cc3ccccc3N12 (stereo not shown) [Epinastine (hydrochloride)],Cholesterol-free,[1],1.415
same,Complete,[1],0.8806
same,Difference,[1],−0.53
same,Cholesterol-free media + simvastatin (0.04 μM),[2],1.515
same,Complete Media,[2],1.132
same,Difference,[2],−0.38
NC(=O)c1cn(Cc2c(F)cccc2F)nn1 [Rufinamide],Difference,[1]; [3],0.00
same,Cholesterol-free,[1]; [21],0.9822
same,Complete,[1]; [22],0.9785
same,Cholesterol-free media + simvastatin (0.04 μM),[2]; [11],0.995
same,Complete Media,[2]; [12],0.8999
same,Difference,[2]; [7],−0.10
C[C@]12CC[C@@H]3c4ccc(OC(=O)c5ccccc5)cc4CC[C@H]3[C@@H]1CC[C@@H]2O [Estradiol benzoate],Cholesterol-free,[1]; [4],1.285
same,Complete,"[1]; NCI-H292 cells, complete media",0.9221
same,Difference,[1]; [19],−0.36
same,Cholesterol-free media + simvastatin (0.04 μM),[2]; [5],1.387
same,Complete Media,[2]; [6],1.134
same,Difference,[2]; [7],−0.25
C=CCN1C[C@H](C(=O)N(CCCN(C)C)C(=O)NCC)C[C@@H]2c3cccc4[nH]cc(c34)C[C@H]21 [Cabergoline],Difference,[1]; [8],−0.59
same,Cholesterol-free,[1]; [9],1.769
same,Complete,[1]; [10],1.184
same,Cholesterol-free media + simvastatin (0.04 μM),[2]; [5],1.138
same,Complete Media,[2]; [6],0.8998
same,Difference,[2]; [7],−0.24
Cc1nnc(SCC2=C(C(=O)O)N3C(=O)[C@@H](NC(=O)Cn4cc(Cl)c(=O)c(Cl)c4)[C@H]3SC2)s1 [Cefazedone],Difference,[1]; [18],−0.67
same,Cholesterol-free,[1]; [9],1.61
same,Complete,[1]; [10],0.9409
same,Cholesterol-free media + simvastatin (0.04 μM),[2]; [11],1.153
same,Complete Media,[2]; [12],1.591
same,Difference,"[2]; complete media minus cholesterol-free media + simvastatin, […]",0.44
CC1CC(OC(=O)c2ccccc2O)CC(C)(C)C1 (stereo not shown) [Homosalate],Cholesterol-free,[1]; [4],0.9096
same,Complete,"[1]; NCI-H292 cells, complete media",0.5831
same,Difference,[1]; [19],−0.33
same,Cholesterol-free media + simvastatin (0.04 μM),[2]; [24],1.411
same,Complete Media,[2]; [25],1.442
same,Difference,[2]; [20],0.03
CCCCCCCCCCCCCCCC(=O)O[C@@H]1[C@@H](O)[C@@H](O)[C@@H]([C@H](NC(=O)[C@@H]2C[C@@H](CCC)CN2C)[C@H](C)Cl)O[C@@H]1SC.Cl [Clindamycin palmitate (hydrochloride)],Cholesterol-free,[1]; [21],0.6777
same,Complete,[1]; [22],1.478
same,Difference,[1]; [23],0.80
same,Cholesterol-free media + simvastatin (0.04 μM),[2]; [11],1.093
same,Complete Media,[2]; [12],0.9482
same,Difference,[2]; [7],−0.14
O=C(C[S+]([O-])Cc1ccco1)NC/C=C\COc1cc(CN2CCCCC2)ccn1 (stereo not shown) [Lafutidine],Difference,[1]; [3],0.01
same,Cholesterol-free,[1]; [21],1.364
same,Complete,[1]; [22],1.371
same,Cholesterol-free media + simvastatin (0.04 μM),[2]; [24],1.203
same,Complete Media,[2]; [25],1.221
same,Difference,[2]; [20],0.02
CCCNC(C)C(=O)Nc1c(C)csc1C(=O)OC (stereo not shown) [Articaine (hydrochloride)],Cholesterol-free,[1]; [21],1.045
same,Complete,[1]; [22],1.285
same,Difference,[1]; [23],0.24
same,Cholesterol-free media + simvastatin (0.04 μM),[2]; [11],0.9336
same,Complete Media,[2]; [12],0.8247
same,Difference,[2]; [7],−0.11
